Data: patent US10882856B2 (BeiGene, Ltd., priority 2017, dated 2021)

Experiments:
[1] = target: T1, cellular TDO2 in HEK293-TDO2 cells (Homo sapiens, UniProt P48775); test: 293-TDO2 cell-based assay (Kyn colorimetric); details: 48 hours of incubation
T1 construct: expressed in transfected cells; host or cells: HEK293 (ATCC), stably transfected
Outline: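 Kyn formed from L-Trp was read colorimetrically at 480 nm (TCA deproteinisation, then 2% 4-(dimethylamino)benzaldehyde). Compounds were added to 293-TDO2 cells 4 h post-seeding and left 48 h at 37° C. A four-parameter logistic model gave IC50 values.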

IDO1 [2] = target: T2, IDO1 (Homo sapiens, UniProt P14902); test: IDO1 enzymatic assay; format: biochemical; parameters: His tag (N); made in house; host or cells: E. coli; details: read-out: Enzyme IC50 IDO1
Outline: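 Assays were run in 50 mM potassium phosphate pH 7.5 with 0.1% BSA for 1.5 hours at 24 °C. Each contained 50 nM E. coli-purified, N-terminally His-tagged IDO1, compound, 1.3 mM D-tryptophan, 5 mM L-ascorbic acid, methylene blue and 0.4 mg/mL catalase. IC50 was calculated from remaining enzyme activity across a rising compound series, with activity taken as the slope of N'-formylkynurenine formation read continuously at 321 nm for 1 hour.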

IDO1 [3] = target: T2, IDO1; test: Hela cell-based IDO1 assay; details: Hela cells
Outline: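 Kynurenine was measured at 480 nm in trichloroacetic acid-deproteinised supernatant after adding 2% 4-(dimethylamino)benzaldehyde. This supernatant came from HeLa cells seeded at 8000 per well in 96-well plates in phenol red-free DMEM with 10% FBS and, from 4 hours after seeding, exposed for 48 hours at 37 °C, 5% CO2 to DMSO-diluted compound dilutions, IFN-γ (final 100 ng/mL) and 0.4 mM L-Trp. The resulting data were fitted with a four-parameter logistic model in XLfit. Potency was taken from those fits.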

T1 sequence (P48775 whole entry): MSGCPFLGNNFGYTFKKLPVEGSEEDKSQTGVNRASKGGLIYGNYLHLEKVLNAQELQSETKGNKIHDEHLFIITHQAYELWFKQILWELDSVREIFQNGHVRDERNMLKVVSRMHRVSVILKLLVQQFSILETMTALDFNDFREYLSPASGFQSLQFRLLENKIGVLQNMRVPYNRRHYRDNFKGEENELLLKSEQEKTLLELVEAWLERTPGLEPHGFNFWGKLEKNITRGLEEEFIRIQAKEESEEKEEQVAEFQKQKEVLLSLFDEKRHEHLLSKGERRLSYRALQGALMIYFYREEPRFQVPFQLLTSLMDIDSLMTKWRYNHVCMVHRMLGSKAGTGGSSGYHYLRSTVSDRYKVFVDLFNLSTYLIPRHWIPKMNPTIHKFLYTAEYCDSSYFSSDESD
T2 sequence (P14902 whole entry): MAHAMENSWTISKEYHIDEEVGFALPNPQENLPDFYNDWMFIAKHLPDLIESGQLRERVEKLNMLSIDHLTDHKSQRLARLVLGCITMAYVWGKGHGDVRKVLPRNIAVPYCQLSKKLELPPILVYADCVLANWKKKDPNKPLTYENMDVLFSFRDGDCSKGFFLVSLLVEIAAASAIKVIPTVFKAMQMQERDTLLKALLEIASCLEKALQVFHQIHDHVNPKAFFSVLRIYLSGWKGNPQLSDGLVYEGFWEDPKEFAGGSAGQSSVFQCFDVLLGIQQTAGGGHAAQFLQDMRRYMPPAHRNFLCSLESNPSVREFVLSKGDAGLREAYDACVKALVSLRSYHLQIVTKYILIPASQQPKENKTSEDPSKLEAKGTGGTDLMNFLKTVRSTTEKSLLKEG

SMILES | EC50 [1] [µM] | IC50 (IDO1 [2]) [nM] | EC50 (IDO1 [3]) [nM]
OC(c1c(C2CC2)ccc2cncn12)C1CCC(c2cccc(F)c2F)CC1 (stereo not drawn) [Example D132, (6-cyclopropylimidazo[1,5-a]pyridin-5-yl)(4-(2,3-difluorophenyl)cyclohexyl)methanol] | > 10 | 55 | 378
OC(c1c(C2CC2)ccc2cncn12)C1CCC(c2ccc3sccc3c2)CC1 (stereo not drawn) [Example D133, (4-(benzo[b]thiophen-5-yl)cyclohexyl)(6-cyclopropylimidazo[1,5-a]pyridin-5-yl)methanol] | > 10 | 44 | 496
OC(c1c(C2CC2)ccc2cncn12)C1CCC(c2ccc3ccsc3c2)CC1 (stereo not drawn) [Example D134, (4-(benzo[b]thiophen-6-yl)cyclohexyl)(6-cyclopropylimidazo[1,5-a]pyridin-5-yl)methanol] | > 10 | 61 | 364
OC(c1c(C2CC2)ccc2cncn12)C1CCC(c2cccc3ccccc23)CC1 (stereo not drawn) [Example D135, (6-cyclopropylimidazo[1,5-a]pyridin-5-yl)(4-(naphthalen-1-yl)cyclohexyl)methanol] | > 10 | 32 | 32
OC(c1c(C2CC2)ccc2cncn12)C1CCC(c2ccc3ccccc3c2)CC1 (stereo not drawn) [Example D136, (6-cyclopropylimidazo[1,5-a]pyridin-5-yl)(4-(naphthalen-2-yl)cyclohexyl)methanol] | > 10 | 51 | 358
OC(c1c(C2CC2)ccc2cncn12)C1CCC(c2ccc(F)c3ccccc23)CC1 (stereo not drawn) [Example D137, (6-cyclopropylimidazo[1,5-a]pyridin-5-yl)(4-(4-fluoronaphthalen-1-yl)cyclohexyl)methanol] | > 10 | 62 | 98
Oc1ccc(C2CCC(C(O)c3c(C4CC4)ccc4cncn34)CC2)c2ccccc12 (stereo not drawn) [Example D138, (6-cyclopropylimidazo[1,5-a]pyridin-5-yl)(4-(4-hydroxynaphthalen-1-yl)cyclohexyl)methanol] | > 10 | 62 | 583
COc1ccc(C2CCC(C(O)c3c(C4CC4)ccc4cncn34)CC2)c2ccccc12 (stereo not drawn) [Example D139, (6-cyclopropylimidazo[1,5-a]pyridin-5-yl)(4-(4-methoxynaphthalen-1-yl)cyclohexyl)methanol] | > 10 | 75 | 977
OC(c1c(C2CC2)ccc2cncn12)C1CCC(c2ccnc3ccccc23)CC1 (stereo not drawn) [Example D140, (6-cyclopropylimidazo[1,5-a]pyridin-5-yl)(4-(quinolin-4-yl)cyclohexyl)methanol] | > 10 | 24 | 42
OC(c1c(C2CC2)ccc2cncn12)C1CCC(c2cccc3ncccc23)CC1 (stereo not drawn) [Example D141, (6-cyclopropylimidazo[1,5-a]pyridin-5-yl)(4-(quinolin-5-yl)cyclohexyl)methanol] | > 10 | 23 | 21
Oc1cccc(C2CCC(C(O)c3c(C4CC4)ccc4cncn34)CC2)c1 (stereo not drawn) [Example D142, 3-(4-((6-cyclopropylimidazo[1,5-a]pyridin-5-yl)(hydroxy)methyl)cyclohexyl)phenol] | > 10 | 32 | 40
COc1cccc(C2CCC(C(O)c3c(C4CC4)ccc4cncn34)CC2)c1 (stereo not drawn) [Example D143, (6-cyclopropylimidazo[1,5-a]pyridin-5-yl)(4-(3-methoxyphenyl)cyclohexyl)methanol] | > 10 | 33 | 62
OC(c1c(C2CC2)ccc2cncn12)C1CCC(c2cc(F)cc(F)c2)CC1 (stereo not drawn) [Example D144, (6-cyclopropylimidazo[1,5-a]pyridin-5-yl)(4-(3,5-difluorophenyl)cyclohexyl)methanol] | > 10 | 42 | 96
OC(c1c(C2CC2)ccc2cncn12)C1CCC(c2ccc(F)c(F)c2F)CC1 (stereo not drawn) [Example D145, (6-cyclopropylimidazo[1,5-a]pyridin-5-yl)(4-(2,3,4-trifluorophenyl)cyclohexyl)methanol] | > 10 | 54 | 462
COc1ccc(C2CCC(C(O)c3c(C4CC4)ccc4cncn34)CC2)c(F)c1 (stereo not drawn) [Example D146, (6-cyclopropylimidazo[1,5-a]pyridin-5-yl)(4-(2-fluoro-4-methoxyphenyl)cyclohexyl)methanol] | > 10 | 28 | 210
COc1ccc(C2CCC(C(O)c3c(C4CC4)ccc4cncn34)CC2)c(Cl)c1 (stereo not drawn) [Example D147, (4-(2-chloro-4-methoxyphenyl)cyclohexyl)(6-cyclopropylimidazo[1,5-a]pyridin-5-yl)methanol] | > 10 | 43 | 443
COc1ccc(C2CCC(C(O)c3c(C4CC4)ccc4cncn34)CC2)cc1Cl (stereo not drawn) [Example D148, (4-(3-chloro-4-methoxyphenyl)cyclohexyl)(6-cyclopropylimidazo[1,5-a]pyridin-5-yl)methanol] | > 10 | 40 | 188
OC(c1c(C2CC2)ccc2cncn12)C1CCC(c2cc(F)c(F)cc2F)CC1 (stereo not drawn) [Example D149, (6-cyclopropylimidazo[1,5-a]pyridin-5-yl)(4-(2,4,5-trifluorophenyl)cyclohexyl)methanol] | > 10 | 26 | 492
OC(c1c(C2CC2)ccc2cncn12)C1CCC(c2ccnc3ccc(F)cc23)CC1 (stereo not drawn) [Example D150, (6-cyclopropylimidazo[1,5-a]pyridin-5-yl)(4-(6-fluoroquinolin-4-yl)cyclohexyl)methanol] | > 10 | 36 | 37
CC(=O)COc1ccc([C@H]2CC[C@H]([C@H](O)c3c(C4CC4)ccc4cncn34)CC2)cc1 [Example D151, 1-(4-((1 S,4r)-4-((S)-(6-cyclopropylimidazo[1,5-a]pyridin-5-yl)(hydroxy)methyl)cyclohexyl)phenoxy)propan-2-one] | > 10 | 15 | 33
O=C(COc1ccc([C@H]2CC[C@H]([C@H](O)c3c(C4CC4)ccc4cncn34)CC2)cc1)c1ccccc1 [Example D152, 2-(4-((1S,4r)-4-((S)-(6-cyclopropylimidazo[1,5-a]pyridin-5-yl)(hydroxy)methyl)cyclohexyl)henoxy)-1-phenylethan-1-one] | > 10 | 37 | 118
NC(=O)c1ccc([C@H]2CC[C@H]([C@H](O)c3c(C4CC4)ccc4cncn34)CC2)cc1 [Example D153, 4-((1S,4r)-4-(S)-(6-cyclopropylimidazo[1,5-a]pyridin-5-yl(hydroxy)methyl)cyclohexyl)benzamide] | > 10 | 11 | 145
OC(c1c(C2CC2)ccc2cncn12)C1CCC(c2cc3ccccc3s2)CC1 (stereo not drawn) [Example D154, (4-(benzo[b]thiophen-2-yl)cyclohexyl)(6-cyclopropylimidazo[1,5-a]pyridin-5-yl)methanol] | > 10 | 68 | 648
OC(c1c(C2CC2)ccc2cncn12)C1CCC(c2csc3ccccc23)CC1 (stereo not drawn) [Example D155, (4-(benzo[b]thiophen-3-yl)cyclohexyl)(6-cyclopropylimidazo[1,5-a]pyridin-5-yl)methanol] | > 10 | 70 | 87
OC(c1c(C2CC2)ccc2cncn12)C1CCC(c2cccc(F)c2)CC1 (stereo not drawn) [Example D156, (6-cyclopropylimidazo[1,5-a]pyridin-5-yl)(4-(3-fluorophenyl)cyclohexyl)methanol] | > 10 | 57 | 75
OC(c1c(C2CC2)ccc2cncn12)C1CCC(c2ccc3ncccc3c2)CC1 (stereo not drawn) [Example D157, (6-cyclopropylimidazo[1,5-a]pyridin-5-yl)(4-(quinolin-6-yl)cyclohexyl)methanol] | > 10 | 31 | 75
CC(=O)c1ccc(C2CCC(C(O)c3c(C4CC4)ccc4cncn34)CC2)cc1 (stereo not drawn) [Example D158] | > 10 | 58 | 836
CC(=O)Nc1ccc([C@H]2CC[C@H]([C@H](O)c3c(C4CC4)ccc4cncn34)CC2)cc1 [Example D159, N-(4-((1S,4r)-4-((S)-(6-cyclopropylimidazo[1,5-a]pyridin-5-yl)hydroxy)methylcyclohexyl)phenyl)acetamide] | > 10 | 12 | 80
NC(=O)Nc1ccc([C@H]2CC[C@H]([C@H](O)c3c(C4CC4)ccc4cncn34)CC2)cc1 [Example D160, 1-(4-((1S,4r)-4-((S)-(6-cyclopropylimidazo[1,5-a]pyridin-5-yl)(hydroxy)methyl)cyclohexyl)phenyl)urea] | > 10 | 15 | 128
OC(c1c(C2CC2)ccc2cncn12)C1CCC(c2ccc3cccnc3c2)CC1 (stereo not drawn) [Example D161, (6-cyclopropylimidazo[1,5-a]pyridin-5-yl)(4-(quinolin-7-yl)cyclohexyl)methanol] | > 10 | 34 | 263
